The results in this text go back to publication PMC8153077, “Inhibiting quinolone biosynthesis of Burkholderia” (Chemical Science, 2021).

Molecules are shown by their SMILES.

The target of assay [1] is T1, HmqD (Burkholderia ambifaria, UniProt Q0B3G0).
T1 construct: gene Bamb_5766; recombinant HmqD overexpressed in live E. coli BL21
The assay can be described thus: live-cell activity-based labelling with click chemistry and in-gel fluorescence; proteomic identification of the modified site. An excerpt: live-cell activity-based labelling with click chemistry and in-gel fluorescence; proteomic identification of the modified site on HmqD | identified as site of modification by probe CAA only the active site cysteine C114

Assay [2] addresses T1, HmqD. The assay can be described thus: competitive live-cell activity-based labelling against probe CAA, in-gel fluorescence.

T1 sequence (Q0B3G0 entry or part of it): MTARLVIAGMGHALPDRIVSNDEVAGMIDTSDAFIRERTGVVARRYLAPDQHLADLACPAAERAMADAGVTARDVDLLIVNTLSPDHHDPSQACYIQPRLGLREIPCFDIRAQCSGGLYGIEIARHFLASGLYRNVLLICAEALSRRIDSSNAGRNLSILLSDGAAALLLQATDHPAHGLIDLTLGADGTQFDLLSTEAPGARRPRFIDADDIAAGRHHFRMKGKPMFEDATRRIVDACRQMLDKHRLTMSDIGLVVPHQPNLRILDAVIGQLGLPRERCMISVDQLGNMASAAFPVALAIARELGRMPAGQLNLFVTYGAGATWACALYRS

For `C#CCCC(=O)NCc1ccc(N)c(C(=O)CCl)c1` [CAA], on HmqD [1], the “live-cell activity-based labelling with click chemistry and in-gel fluorescence;” value came out at 15 nM. As a reminder, the IC50 is the concentration needed to halve the response being measured. Lower therefore signals higher potency. The compound `Nc1ccc(I)cc1C(=O)CCl` [compound 4] displayed a concentration for half-maximal inhibition (IC50) at HmqD [2] of 0.1 µM. In the case of `Nc1cc2c(cc1C(=O)CCl)OCCO2` [compound 7], the IC50 at HmqD [2] came out at 0.2 µM.

Consider `O=C(CCl)c1ccccc1` [compound 9], for which the half-inhibitory concentration (IC50) on HmqD [2] was found to be 0.2 µM.
